Experiments:
[1] = tested on: ducksalad (Heteranthera limosa); test: Test B flooded paddy test plant response; type: in vivo; details: for pest or weed control at 62 g/ha / pest or weed control at 125 g/ha / pest or weed control at 250 g/ha / pest or weed control at 31 g/ha: Heteranthera limosa, read-out: Plant response rating, Ducksalad
Method in brief: (§1)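 Rice, umbrella sedge, ducksalad and barnyardgrass at 2-leaf stage; pots flooded to 3 cm, compounds applied into paddy water, depth held throughout. Greenhouse 13 to 15 days, then visual rating vs untreated controls on 0–100 scale (0 no effect, 100 complete control); dash means no test result.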

[2] = tested on: umbrella sedge (Cyperus difformis); test: Test B flooded paddy test plant response; type: in vivo; details: for pest or weed control at 62 g/ha / pest or weed control at 125 g/ha / pest or weed control at 250 g/ha / pest or weed control at 31 g/ha: Cyperus difformis, read-out: Plant response rating, Sedge, Umbrella
Method in brief: as §1

[3] = Flood (flooded paddy test), 62 g ai/ha, scale 0 to 100, 0 no effect, 100 complete control
[4] = Flood (flooded paddy test), 125 g ai/ha, scale 0 to 100, 0 no effect, 100 complete control
[5] = Flood (flooded paddy test), 250 g ai/ha, scale 0 to 100, 0 no effect, 100 complete control
[6] = Flood, 31 g ai/ha, scale 0 to 100

Row | Compound | Plant response rating, Ducksalad [1, 3] | Plant response rating, Ducksalad [1, 4] | Plant response rating, Ducksalad [1, 5] | Plant response rating, Ducksalad [1, 6] | Plant response rating, Sedge, Umbrella [2, 3] | Plant response rating, Sedge, Umbrella [2, 4] | Plant response rating, Sedge, Umbrella [2, 5] | Plant response rating, Sedge, Umbrella [2, 6] | pest or weed control at 62 g/ha [1, 3] | pest or weed control at 125 g/ha [1, 4] | pest or weed control at 250 g/ha [1, 5] | pest or weed control at 31 g/ha [1, 6] | pest or weed control at 62 g/ha [2, 3] | pest or weed control at 125 g/ha [2, 4] | pest or weed control at 250 g/ha [2, 5] | pest or weed control at 31 g/ha [2, 6]
1 | 4-[3-(4-chlorophenyl)-5-methyl-1H-pyrazol-3-yl]-5-hydroxy-2-methyl-3(2H)-pyridazinone [Compound 3] | 0 | 0 | 40 | 0 | 60 | 80 | 80 | 60 |  |  |  |  |  |  |  | 
2 | Cc1cc(-c2ccc(C(F)(F)F)cc2)nn1-c1c(O)cnn(C)c1=O [Compound 1, 5-hydroxy-2-methyl-4-[5-methyl-3-[4-(trifluoromethyl)phenyl]-1H-pyrazol-1-yl]-3(2H)-pyridazinone] |  |  |  |  |  |  |  |  | 0% | 0% | 30% | 0% | 40% | 40% | 60% | 0%
3 | Cc1cc(-c2ccc(C(F)(F)F)cc2)nn1-c1c(OC(=O)C(C)(C)C)cnn(C)c1=O [Compound 2] | 0 | 0 | 40 | 0 | 50 | 60 |  | 0 |  |  |  |  |  |  |  | 
4 | Cc1cc(-c2ccc(Br)cc2)nn1-c1c(O)cnn(C)c1=O [Compound 4] | 75 | 85 | 85 | 0 | 60 | 90 | 100 | 40 |  |  |  |  |  |  |  | 
5 | Cc1cc(-c2ccc(Br)cc2)nn1-c1c(OC(=O)OC(C)C)cnn(C)c1=O [Compound 6] | 50 | 60 | 70 | 40 | 70 | 85 | 95 | 30 |  |  |  |  |  |  |  | 
6 | Cn1ncc(O)c(-c2nn(-c3ccc(Cl)cc3)cc2Br)c1=O [Compound 31] | 0 | 0 | 0 | 0 | 0 | 0 | 0 | 0 |  |  |  |  |  |  |  | 
7 | Cc1cc(-c2ccc(Cl)cc2)nn1-c1c(OS(C)(=O)=O)cnn(C)c1=O [Compound 36] | 0 | 0 | 0 | 0 | 0 | 0 | 0 | 0 |  |  |  |  |  |  |  | 
8 | CCc1cc(-c2ccc(Cl)cc2)nn1-c1c(OS(C)(=O)=O)cnn(C)c1=O [Compound 39] | 0 | 0 | 80 | 0 | 0 | 0 | 85 | 0 |  |  |  |  |  |  |  | 
9 | CCc1cc(-c2ccc(Cl)cc2)nn1-c1c(OC(=O)C(C)(C)C)cnn(C)c1=O [Compound 40] | 0 | 0 | 0 | 0 | 0 | 0 | 0 | 0 |  |  |  |  |  |  |  | 
10 | CCc1cc(-c2ccc(Br)cc2)nn1-c1c(O)cnn(C)c1=O [Compound 61] | 0 | 0 | 70 | 0 | 0 | 0 | 30 | 0 |  |  |  |  |  |  |  | 
11 | CCc1cc(-c2ccc(C(F)(F)F)cc2)nn1-c1c(O)cnn(CC)c1=O [Compound 67] | 0 | 0 | 75 | 0 | 0 | 0 | 0 | 0 |  |  |  |  |  |  |  | 
12 | COCc1cc(-c2ccc(Br)cc2)nn1-c1c(O)cnn(C)c1=O [Compound 68] | 0 | 0 | 0 | 0 | 0 | 0 | 0 | 0 |  |  |  |  |  |  |  | 
13 | Cc1cc(-c2ccc(Cl)cc2)nn1-c1c(OC(=S)N(C)C)cnn(C)c1=O [Compound 69] | 0 | 0 | 0 | 0 | 0 | 0 | 0 | 0 |  |  |  |  |  |  |  | 
14 | Cc1nn(C)c(=O)c(-n2nc(-c3ccc(C(F)(F)F)cc3)cc2C)c1O [Compound 75, 5-hydroxy-2,6-dimethyl-4-[5-methyl-3-[4-(trifluoromethyl)phenyl]-1H-pyrazol-1-yl]-3(2H)-pyridazinone] |  |  |  |  |  |  |  |  | 0% |  | 0% |  | 0% |  | 0% | 
15 | Cc1cc(-c2ccc(Br)cc2)nn1-c1c(OC(=O)C2CC2)cnn(C(=O)C2CC2)c1=O [Compound 80, 5-[3-(4-bromophenyl)-5-methyl-1H-pyrazol-1-yl]-1-(cyclopropylcarbonyl)-1,6-dihydro-6-oxo-4-pyridazinyl cyclopropanecarboxylate] |  |  |  |  |  |  |  |  | 0% | 0% | 0% | 0% | 0% | 0% | 0% | 0%
16 | Cc1nn(C)c(=O)c(-n2nc(-c3ccc(Br)cc3)cc2C)c1O [Compound 81] | 0 | 0 | 0 | 0 | 0 | 0 | 0 | 0 |  |  |  |  |  |  |  | 
